Test in all cases: Test A post-emergence
Design in all cases: key: 0 = no effect, 10 = maximum effect; letter = response symbol
Common to all, as to conditions: 0.4 kg/ha

Assay [1] deals with cocklebur. The assay is classed as in vivo, Xanthium spp. The method in brief: (§1)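 Seeds and tubers were treated preemergence in a growth medium with compound in a nonphytotoxic solvent, against untreated controls; emerged plants such as two-leaf barnyardgrass and five-leaf cotton were sprayed postemergence, against solvent-sprayed controls. After sixteen days in a greenhouse, response was rated visually from 0 to 10.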

Assay [2] relates to morningglory. The assay is classed as in vivo, Ipomoea spp. The method in brief: as §1
Assay [3] relates to crabgrass. The assay is classed as in vivo, Digitaria spp. The method in brief: as §1
Assay [4] deals with cassia. The assay is classed as in vivo, Cassia tora. The method in brief:
as §1

Assay [5] has as its system rice. The assay is classed as in vivo. In a few lines:
as §1

For assay [6], the system named is corn. The format is in vivo. In a few lines: as §1
The test system of assay [7] is bush bean. The assay is classed as in vivo, bush beans.
Assay [8] has as its system cotton. The assay is classed as in vivo. In a few lines: as §1
The test system of assay [9] is wheat. The assay is classed as in vivo. The method in brief: as §1
Assay [10] relates to soybean. The format is in vivo. The method in brief: as §1
Assay [11] has as its system barnyardgrass. The format is in vivo, Echinochloa crusgalli. In a few lines: as §1
The subject of assay [12] is nutsedge. The assay is classed as in vivo, Cyperus rotundus. In a few lines: as §1
Assay [13] relates to sorghum. The format is in vivo. In a few lines: as §1
Assay [14] concerns wild oats. The format is in vivo, Avena fatua. In a few lines: as §1

As for `COC(=O)c1cc(Cl)ccc1S(=O)(=O)NC(=O)Nc1nc(C)cc(OC)n1` [drawing 434], the response rating in assay [1] was determined as 10C; in assay [2], 10C; in assay [3] it was 3G; in assay [4], 9C; in assay [5], 9C; in assay [6] it was 9H.
For the molecule `COCCc1nc(NC(=O)NS(=O)(=O)c2ccccc2C(=O)OC)nc(OC)n1` [drawing 474], the response rating in assay [2] amounted to 10C; in [7] it was 9C; in [3], 9C; in assay [8] it was 9C; in assay [9], 1C; in assay [6], 9C. Besides, in assay [10], the response rating was found to be 9C.
`COc1cc(OC)nc(NC(=O)NS(=O)(=O)c2ccccc2C(=O)OCCCl)n1` [drawing 420]: the response rating in assay [11] amounted to 10C; in [1], 10C; in [2], 10C; in assay [12] it was 9C; in [7] it was 9C; in assay [4], 9C. For the same molecule, the response rating in assay [8] was determined as 9C; in assay [10], 10C; in assay [13], 10C.
As for `C=CCCC(C)OC(=O)c1ccccc1S(=O)(=O)NC(=O)Nc1nc(C)nc(OC)n1` (centres unmarked) [drawing 455], the response rating in [1] is 10C; in assay [2] it was 10C; in assay [12] it was 7G; in assay [7], 9C; in [3] it was 9C; in [4], 9C. Moreover, the response rating in assay [8], in assay [6] and in [10] was 9C in each case.
In the case of `COc1cc(C)nc(NC(=O)NS(=O)(=O)c2ccccc2C(=O)OC(C)CCl)n1` (centres unmarked) [drawing 478], the response rating is reported as 8C in assay [14]; 10C in assay [11]; 9C in assay [1]; 10C in assay [2]; 9C in assay [12]; 9C in [3]. The response rating in [4] is 10C; in assay [8], 9C; in assay [9], 8C; in [6], 9C; in assay [13], 9C.
On to `COc1cc(C)nc(NC(=O)NS(=O)(=O)c2ccccc2C(=O)OCCOc2ccccc2)n1` [drawing 461], for which the response rating in [11] is 9C; in [1], 10C; in assay [2], 9C; in assay [12], 8G; in assay [7] it was 9C; in [3], 4G. Moreover, the values for the response rating in assay [8], in [10] and in assay [13] were 9C, 9C and 8G, respectively.
`CCOCCOC(=O)c1ccccc1S(=O)(=O)NC(=O)Nc1nc(Cl)cc(Cl)n1` [drawing 453]: the response rating in [14] stood at 1C; in assay [1] it was 5C; in [2] it was 0; in [12], 0; in assay [3], 2C; in assay [4], 0. The figures for the response rating in [8] and in assay [9] were 1C and 2G, respectively.
As to `COc1nc(C)nc(NC(=O)NS(=O)(=O)c2ccccc2C(=O)OC2CCCCCCC2)n1` [drawing 456], the response rating in [14] was determined as 4G; in [1], 9C; in [2] it was 10C; in [12], 4G; in [7], 9C; in assay [4], 9C. Also, the response rating in assay [8] worked out at 9C; in assay [9] it was 2G; in assay [6] it was 9C.
For `COc1cc(C)nc(NC(=O)NS(=O)(=O)c2ccccc2C(=O)NCc2ccccc2)n1` [drawing 464], the response rating in [14] came out at 9C; in assay [11], 9C; in [1], 9C; in [2], 10C; in [7], 9C; in [8], 9C. The response rating in assay [9] is reported as 9C; in assay [6] it was 10C; in [10], 9C; in assay [13], 9C.
As for `COC(=O)c1ccccc1S(=O)(=O)NC(=O)Nc1nc(C)cc(OC)n1` [drawing 413], the response rating in assay [14] was 9C; in assay [11] it was 9C; in [1] it was 9C; in assay [2], 10C; in assay [12] it was 9C; in assay [7], 9C. Moreover, the response rating is on record as 9C in assay [4]; 9C in assay [8]; 9C in assay [9]; 10C in [6]; 9C in assay [10]; 9C in [13].
As for `COC(=O)c1ccccc1S(=O)(=O)NC(=O)Nc1nc(OC)nc(OCC(F)(F)F)n1` [drawing 473], the response rating in [1] was found to be 10C; in [2], 10C; in assay [7], 9C; in assay [3] it was 3G; in assay [4], 10C; in assay [8], 9C. Besides, the response rating in [6] was determined as 10C.
For `CNC(=O)c1ccccc1S(=O)(=O)NC(=O)Nc1nc(C)cc(OC)n1` [drawing 466], the response rating is 9C in [14]; 9C in assay [11]; 9C in assay [1]; 10C in assay [2]; 10C in assay [12]; 9C in assay [7]. The response rating in assay [3] is 9C; in assay [4], 9C; in assay [8] it was 10C; in assay [9], 9C; in assay [6] it was 10C; in assay [10], 9C. In addition, the response rating in assay [13] is 10C.
As to `CCCCCCOC(=O)c1ccccc1S(=O)(=O)NC(=O)Nc1nc(C)cc(COC)n1` [drawing 471], the response rating in [14] is listed as 0; in assay [11], 3C; in assay [2], 2C; in assay [3] it was 0; in assay [4], 1C; in assay [8], 2C. Further, the values for the response rating in assay [9] and in assay [10] were 0 and 2C, respectively.
Consider `COC(=O)c1cc(F)ccc1S(=O)(=O)NC(=O)Nc1nc(C)nc(OC)n1` [drawing 450], for which the response rating is 0 in assay [14]; 9C in [2]; 9C in [7]; 9C in assay [3]; 9C in [4]; 9C in assay [5]. The results for the response rating in assay [9] and in assay [6] were 0 and 9C, respectively.
`COc1cc(C)nc(NC(=O)NS(=O)(=O)c2ccccc2C(=O)OCCCl)n1` [drawing 421]: the response rating in assay [11] is recorded as 10C; in assay [1], 10C; in [2] it was 10C; in assay [12], 10C; in assay [7] it was 9C; in assay [4], 10C. Also, the response rating in assay [8] amounted to 9C; in assay [6], 10C; in assay [13], 9C.
Consider `COc1cc(C)nc(NC(=O)NS(=O)(=O)c2ccccc2C(=O)SCc2ccccc2)n1` [drawing 475], for which the response rating in [11] was 9C; in [1] it was 9C; in assay [2], 10C; in assay [7], 9C; in [4], 9C; in [8], 9C. Moreover, the response rating in [6] is listed as 9C; in assay [10] it was 8C.
In the case of `COc1cc(C)nc(NC(=O)NS(=O)(=O)c2ccccc2C(=O)SC)n1` [drawing 477], the response rating in assay [11], in assay [1], in assay [2], in [7], in assay [4] and in assay [8] was 9C in each case. The response rating in assay [6], in [10] and in assay [13] was 9C each time.

(Values after patent US4383113A, “Agricultural sulfonamides” (E. I. Du Pont de Nemours and Company, priority 1981, dated 1983).)
